{"source": "patent US10328062B2", "about": "“Biomarkers and use of MET inhibitor for treatment of cancer” (AMGEN, INC., priority 2014, dated 2019)", "type_in_all_cases": "cell-based", "key": {"MKN-45": {"tested_on": "MKN-45", "test": "72 hour cancer cell line viability assay (CellTiter-Glo)", "conditions": "Homo sapiens", "method": "(§1) Human cancer cell lines were purchased from ATCC, JCRB, Sigma Aldrich or DSMZ. All cell lines were propagated in growth media per the suppliers' recommendation and maintained in 5% CO2 and 37° C.\n(§2) Cancer cell line viability assays were carried out using the CellTiter-Glo Luminescent Cell Viability Assay from Promega (Madison, Wis.). Optimal cell seeding densities were determined using time lapse imaging to maximize signal window and ensure cells were not contact growth inhibited at the 72 hour time point. Cells were seeded in 96 well plates in complete growth media and allowed to adhere to the bottom of the plate by incubation at 37° C. and 5% CO2 overnight. […] Plates were incubated at 37° C. and 5% CO2 for 72 hours. Treated plates were then allowed to equilibrate to room temperature along with, CellTiter-Glo substrate and buffer solution prior to use in the viability assay. CellTiter-Glo substrate vials were reconstituted in 10 mL of buffer solution and added to assay plates in 100 μL/well volumes. Plates were shaken for 2 minutes at 700 rotations per minute with an orbit diameter of 3 mm followed by room temperature incubation for 10 minutes. Plates were then read using an Envision plate reader on luminescent setting.\n(§3) To calculate growth inhibition effects (0-200% scale), time zero vehicle treated wells (V0), were read at the time of compound addition for each cell line.\n(§4) Threshold for high vs low MET copy number was set at aCGH log 2 ratio of 2.5. Focal nature of MET copy number increase was defined qualitatively using tiled aCGH results for chromosome 7.\n(§5) Percent growth inhibition is reported on a 0-200% scale where 0% is equivalent to no effect (time 72 hour control), 100% is equivalent to stasis (time 0 hour control) and 200% is equivalent to complete cell death."}, "NCI-H1993": {"tested_on": "NCI-H1993", "test": "72 hour cancer cell line viability assay (CellTiter-Glo)", "conditions": "Homo sapiens", "method": "as §1, §2, §3, §4, §5"}, "C32": {"tested_on": "C32", "test": "72 hour cancer cell line viability assay (CellTiter-Glo)", "conditions": "Homo sapiens; C32, Melanoma; MET copy number Low, focal No; 72 hour viability", "method": "as §1, §2, §4"}, "HCC1395": {"tested_on": "HCC1395", "test": "72 hour cancer cell line viability assay (CellTiter-Glo)", "conditions": "Homo sapiens; HCC1395, breast; MET copy number Low, focal No; 72 hour viability", "method": "as §1, §2, §4"}, "HOP-92": {"tested_on": "HOP-92", "test": "72 hour cancer cell line viability assay (CellTiter-Glo)", "conditions": "Homo sapiens; HOP-92, NSCLC; MET copy number Low, focal No; 72 hour viability", "method": "as §1, §2, §4"}, "Hs 746T": {"tested_on": "Hs 746T", "test": "72 hour cancer cell line viability assay (CellTiter-Glo)", "conditions": "Homo sapiens, Hs746T, Gastric, MET copy number High, focal Yes, 72 hour viability", "method": "as §1, §2, §4"}, "Malme-3M": {"tested_on": "Malme-3M", "test": "72 hour cancer cell line viability assay (CellTiter-Glo)", "conditions": "Homo sapiens, Melanoma, MET copy number Low, focal No, 72 hour viability", "method": "as §1, §2, §4"}, "NCI-H1648": {"tested_on": "NCI-H1648", "test": "72 hour cancer cell line viability assay (CellTiter-Glo)", "conditions": "Homo sapiens; NCI-H1648, NSCLC; MET copy number Low, focal Yes; 72 hour viability", "method": "as §1, §2, §4"}, "[1]": {"tested_on": "panel of 20 cancer cell lines", "test": "72 hour viability assays, sensitivity status over the panel", "conditions": "Homo sapiens", "method": "as §1\nas §2, with “Plates were shaken for 2 minutes at 700 rotations per minute with an orbit diameter of 3 mm followed by room temperature incubation for 10 minutes.” left out\nMET copy number for individual cell lines was determined by array comparative genomic hybridization (aCGH) and reported as log 2 ratio of cell line to pooled control DNA from 40 normal donors. […]"}}, "note": "Read-outs that look alike come from different tables or passages of the source.", "data": [{"smiles": "COCCOc1cnc2ccn([C@H](C)c3nnc4c(F)cc(-c5cnn(C)c5)cn34)c(=O)c2c1", "note": "[Compound M, 6-{(1R)-1-[8-fluoro-6-(1-methyl-1H-pyrazol-4-yl)[1,2,4]triazolo[4,3-a]pyridin-3-yl]ethyl}-3-(2-methoxyethoxy)-1,6-naphthyridin-5(6H)-one]", "values": [{"measurement": "IC50", "setting": "MKN-45; MKN-45, Gastric, MET copy number High, focal Yes, 72 hour viability", "result": 0.009, "unit": "µM"}, {"measurement": "Emax", "setting": "MKN-45; MKN-45, 72 hour, 0-200% scale, 100% = stasis, read-out: maximum effect, growth inhibition", "result": 100, "unit": "%"}, {"measurement": "IC50", "setting": "NCI-H1993; NCI-H1993, NSCLC, MET copy number High, focal Yes, 72 hour viability", "result": 0.017, "unit": "µM"}, {"measurement": "Emax", "setting": "NCI-H1993; NCI-H1993, 72 hour, 0-200% scale, 100% = stasis, read-out: maximum effect, growth inhibition", "result": 100, "unit": "%"}, {"measurement": "IC50", "setting": "C32", "result": "> 3", "unit": "µM"}, {"measurement": "IC50", "setting": "HCC1395", "result": "> 3", "unit": "µM"}, {"measurement": "IC50", "setting": "HOP-92", "result": "> 3", "unit": "µM"}, {"measurement": "IC50", "setting": "Hs 746T", "result": 0.003, "unit": "µM"}, {"measurement": "IC50", "setting": "Malme-3M", "result": "> 3", "unit": "µM"}, {"measurement": "IC50", "setting": "NCI-H1648", "result": "> 3", "unit": "µM"}, {"measurement": "IC50", "setting": "[1]; insensitive cell lines, read-out: IC50 values from the viability assay, cell lines binned as insensitive", "result": "> 3", "unit": "µM"}, {"measurement": "IC50", "setting": "[1]; sensitive cell lines, read-out: IC50 values from the viability assay, cell lines binned as sensitive", "result": "0.002 to 0.017", "unit": "µM"}]}]}
